PMC2248166, “Quantitative peptide binding motifs for 19 human and mouse MHC class I molecules derived using positional scanning combinatorial peptide libraries” (Immunome Research, 2008)

Experiments:
Format in all cases: binding
HLA A*3001 = HLA A*3001 (Homo sapiens, UniProt P04439, D140H/D185E/E176W/F33S/G80R/H175R/K168Q/R138E/R41S); test: biochemical
HLA A*3201 = HLA A*3201 (Homo sapiens, UniProt P04439, A270S/D101S/D185E/E176V/E277Q/F133L/G103R/G107R/G231S/H175R/I121M/I218V/I322F/K168Q/L105A/L300P/L318F/M331R/P208A/P217A/Q94H/R106L/R138Q/S129P/T104I/T323A/T345S/V100E/V321M/V358M); test: biochemical
HLA A*6802 = HLA A*6802 (Homo sapiens, UniProt P04439, A269V/D140Y/D185E/E176V/E277Q/E87N/F33Y/G231S/I121R/I166T/I218V/L180W/L300P/L318F/N151K/P208A/P217A/Q86R/R138H/R169H/S129P/T345S/V36M)
HLA B*0801 = HLA B*0801 (Homo sapiens, UniProt P01889, A93T/A95T/D138N/E176V/E187T/K202T/Q94N/R180D/S35A/V36M/Y33D/Y91F); test: biochemical
HLA B*1501 = HLA B*1501 (Homo sapiens, UniProt P01889, A329T/A93T/A95T/C349S/D201E/D98Y/E187L/E204Q/E69M/E70A/K202T/N87E/Q94N/R155S/R180W/S121R/S35A/S48A/V306I/V36M/Y140S/Y91S); test: biochemical
HLA B*1503 = HLA B*1503 (Homo sapiens, UniProt P01889, A329T/A93T/A95T/C349S/D201E/D98Y/E187L/E204Q/K202T/N87E/Q94N/R155S/R180L/S121R/S35A/V306I/V36M/Y140S/Y91S); test: biochemical
HLA B*3501 = HLA B*3501 (Homo sapiens, UniProt P01889, A329T/A93T/A95T/C349S/D201E/D98Y/E176V/E187L/E204Q/E69T/I218V/K202T/L119I/Q94N/R155S/R180L/S121R/S35A/S48A/T118I/V127L/V306I/V36M/Y140S/Y91F)
HLA B*5101 = HLA B*5101 (Homo sapiens, UniProt P01889, A329T/A93T/A95T/C349S/D138N/D201E/D98Y/E187L/E204Q/E69T/G107R/I218V/K202T/L105A/L119W/N104I/Q94N/R106L/R155S/R180L/S101N/S121T/S35A/S48A/V306I/V36M/Y195H/Y91F)
HLA B*5301 = HLA B*5301 (Homo sapiens, UniProt P01889, A329T/A93T/A95T/C349S/D201E/D98Y/E176V/E187L/E204Q/E69T/G107R/I218V/K202T/L105A/L119I/N104I/Q94N/R106L/R155S/R180L/S101N/S121R/S35A/S48A/T118I/V127L/V306I/V36M/Y140S/Y91F)
HLA B*5401 = HLA B*5401 (Homo sapiens, UniProt P01889, A329T/C349S/D138N/D201E/E176V/E187T/E204Q/E69G/I76V/K202T/L119W/R155S/R180L/S121T/S35A/S48A/V127L/V306I/V36M/Y140L)
HLA B*5801 = HLA B*5801 (Homo sapiens, UniProt P01889, A329T/C349S/D201E/D98Y/E176V/E187L/E204Q/E69T/G107R/I218V/I90N/K202T/L105A/L119I/N104I/N87E/Q89R/Q94S/R106L/R155S/R180L/R86G/S101N/S121R/S35A/S48A/T118I/V127L/V306I/V36M/Y140S/Y91M)
HLA B*5802 = HLA B*5802 (Homo sapiens, UniProt P01889, A329T/C349S/D201E/D98Y/E176V/E187L/E204Q/E69T/G107R/I218V/I90N/K202T/L105A/N104I/N87E/Q89R/Q94S/R106L/R155S/R180L/R86G/S101N/S121W/S35A/S48A/V127L/V306I/V36M/Y140S/Y91M)
H-2 D^b = H-2 D^b (Mus musculus, UniProt P01899)
Chain of H-2 D^b (P01887 21-119): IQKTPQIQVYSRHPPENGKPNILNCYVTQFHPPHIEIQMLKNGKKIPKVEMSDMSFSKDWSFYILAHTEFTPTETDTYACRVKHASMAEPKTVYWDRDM
Chain of H-2 D^b (P01899 25-362): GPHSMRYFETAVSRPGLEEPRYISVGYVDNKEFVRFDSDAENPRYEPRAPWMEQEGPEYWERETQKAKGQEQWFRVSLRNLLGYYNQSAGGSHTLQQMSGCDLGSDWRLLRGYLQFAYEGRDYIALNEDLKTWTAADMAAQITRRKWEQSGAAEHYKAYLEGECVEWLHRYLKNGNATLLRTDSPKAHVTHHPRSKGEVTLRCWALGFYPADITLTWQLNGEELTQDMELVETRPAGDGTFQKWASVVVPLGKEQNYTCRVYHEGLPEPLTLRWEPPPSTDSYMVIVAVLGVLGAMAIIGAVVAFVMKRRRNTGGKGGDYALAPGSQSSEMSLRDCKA

H-2 D^d = H-2 D^d (Mus musculus, UniProt P01900)
Chain of H-2 D^d (P01900 whole entry, looked up): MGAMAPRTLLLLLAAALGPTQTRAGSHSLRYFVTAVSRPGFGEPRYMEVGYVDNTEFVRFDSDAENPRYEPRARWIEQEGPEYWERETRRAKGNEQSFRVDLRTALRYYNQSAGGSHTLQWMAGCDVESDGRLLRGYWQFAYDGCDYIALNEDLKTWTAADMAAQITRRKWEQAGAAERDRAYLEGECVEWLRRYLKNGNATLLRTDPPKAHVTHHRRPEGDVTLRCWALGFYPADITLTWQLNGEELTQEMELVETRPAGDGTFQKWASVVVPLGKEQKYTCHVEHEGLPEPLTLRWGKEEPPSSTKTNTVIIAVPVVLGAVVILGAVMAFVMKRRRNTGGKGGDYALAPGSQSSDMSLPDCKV

H-2 K^d = H-2 K^d (Mus musculus, UniProt P01902)
Chain of H-2 K^d (P01887 21-119): as the sequence (P01887 21-119) above
Chain of H-2 K^d (P01902 22-368): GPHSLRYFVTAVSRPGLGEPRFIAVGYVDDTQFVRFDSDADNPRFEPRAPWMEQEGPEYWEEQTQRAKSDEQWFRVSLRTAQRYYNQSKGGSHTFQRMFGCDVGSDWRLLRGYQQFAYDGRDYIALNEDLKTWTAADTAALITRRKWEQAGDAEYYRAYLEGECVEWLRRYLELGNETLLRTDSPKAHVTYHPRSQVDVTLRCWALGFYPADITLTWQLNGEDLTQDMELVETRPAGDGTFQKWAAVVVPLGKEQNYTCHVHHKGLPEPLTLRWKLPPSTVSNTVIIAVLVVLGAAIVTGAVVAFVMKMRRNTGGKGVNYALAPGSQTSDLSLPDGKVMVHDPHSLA

H-2 K^k = H-2 K^k (Mus musculus, UniProt P04223)
Chain of H-2 K^k (P01887 21-119): as the sequence (P01887 21-119) above
Chain of H-2 K^k (P04223 22-369): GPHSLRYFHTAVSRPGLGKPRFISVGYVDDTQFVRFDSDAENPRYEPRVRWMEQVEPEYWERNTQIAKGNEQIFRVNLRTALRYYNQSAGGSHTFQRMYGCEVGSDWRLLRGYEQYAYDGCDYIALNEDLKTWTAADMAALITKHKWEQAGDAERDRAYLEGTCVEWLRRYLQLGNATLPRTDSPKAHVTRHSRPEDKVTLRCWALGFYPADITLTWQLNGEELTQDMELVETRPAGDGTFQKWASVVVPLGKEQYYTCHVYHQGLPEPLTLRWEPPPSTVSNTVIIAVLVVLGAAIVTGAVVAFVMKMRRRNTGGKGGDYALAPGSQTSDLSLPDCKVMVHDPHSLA

Sequence | Normalized average relative binding affinity(ARB) (HLA A*3001) | Normalized average relative binding affinity(ARB) (HLA A*3201) | Normalized average relative binding affinity(ARB) (HLA A*6802) | Normalized average relative binding affinity(ARB) (HLA B*0801) | Normalized average relative binding affinity(ARB) (HLA B*1501) | Normalized average relative binding affinity(ARB) (HLA B*1503) | Normalized average relative binding affinity(ARB) (HLA B*3501) | Normalized average relative binding affinity(ARB) (HLA B*5101) | Normalized average relative binding affinity(ARB) (HLA B*5301) | Normalized average relative binding affinity(ARB) (HLA B*5401) | Normalized average relative binding affinity(ARB) (HLA B*5801) | Normalized average relative binding affinity(ARB) (HLA B*5802) | Normalized average relative binding affinity(ARB) (H-2 D^b) | Normalized average relative binding affinity(ARB) (H-2 D^d) | Normalized average relative binding affinity(ARB) (H-2 K^d) | Normalized average relative binding affinity(ARB) (H-2 K^k)
XXXXXXCXX [3064.0122] | 0.21 | 0.11 | 0.11 | 0.44 | 0.78 | 0.094 | 0.18 | 0.28 | 0.17 | 0.16 | 0.082 | 0.024 | 0.28 | 0.048 | 0.12 | 0.094
XXXXMXXXX [3064.0091] | 0.33 | 0.31 | 0.78 | 0.078 | 0.41 | 0.064 | 0.98 | 0.45 | 0.38 | 0.72 | 0.092 | 0.42 | 0.086 | 0.19 | 0.60 | 0.24
XXXXDXXXX [3064.0083] | 0.041 | 0.043 | 0.20 | 0.0054 | 0.17 | 0.23 | 0.25 | 0.34 | 0.13 | 0.27 | 0.11 | 0.12 | 0.058 | 0.049 | 0.15 | 0.026
XXXXXGXXX [3064.0106] | 0.18 | 0.22 | 0.30 | 0.025 | 0.35 | 0.68 | 0.33 | 0.29 | 0.22 | 0.14 | 0.31 | 0.16 | 0.76 | 0.48 | 0.30 | 0.60
